Experimental data published in patent publication US6680335B2, “Methods of modulating protein tyrosine kinase function with substituted indolinone compounds” (Sugen, Inc., priority 1998, dated 2004).
Values joined by “and” are separate entries in the source; they are usually repeats but may differ in a detail not shown here. Equal values may be shown once.

Experiments:
EGFR protein = molecular target: T1, EGFR protein (Homo sapiens, UniProt P00533); assay: ELISA assay measuring the kinase activity of the EGF receptor (captured from A431 cell lysate); format: biochemical
T1 construct: Add 120 μL TBS to ELISA plate containing captured EGFR; endogenous in cells; host or cells: A431 cells (lysate, captured with SUMO1 anti-EGFR antibody)
Method: The following protocol describes the reagents and procedures used to analyze protein tyrosine kinase activity on the EGFR protein.
2. SUMO1 monoclonal anti-EGFR antibody
All of the following steps are conducted at room temperature unless it is specifically indicated. All ELISA plate washing is by rinsing 4× with TBST.
1. Coat Corning 96 well ELISA plates with 0.5 μ/well of SUMO1 in a volume of 100 μL PBS. Store overnight at 4° C.
2. Remove unbound SUMO1 by inverting plate to remove liquid. Wash plates with distilled water. Pat plate on a paper towel to remove excess liquid and bubbles
3. Add 150 μL of Blocking Buffer to each well. Incubate while shaking on a microliter plate shaker at room temperature for 30 min.
4. Wash 3× with deionized water, then once with TBST. Pat plate on a paper towel to remove excess liquid and bubbles.
5. Dilute lysate in PBS (7 μg of lysate/100 μL of PBS).
6. Add 100 μL of diluted lysate to each well. Shake at room temperature for 60 min.
7. Wash as described in step 4.
8. Add 120 μL TBS to ELISA plate containing captured EGFR.
9. Dilute drugs/extracts 1:10 (unless specified otherwise) in TBS in 96-well polypropylene plates.
10. Add 13.5 μL diluted drugs/extracts to ELISA plate.
11. Incubate for 30 minutes while shaking at room temperature.
12. […] Incubate while shaking on a micro-liter plate shaker at room temperature for 5 min.
13. Stop Kinase reaction with the addition of 16.5 μL of 200 mM EDTA pH 8.0 to all wells.
14. Wash 4× with deionized water and twice with TBST.
15. Add 100 μL per well of anti-phosphotyrosine (1:3000 dilution in TBST). Incubate while shaking on a micro-liter plate shaker 30-45 minutes at room temperature while shaking.
16. Wash as described in step 4.
17. Add 100 μL per well of biosource Goat anti-rabbit IgG peroxidase conjugate (1:2000 dilution in TBST). Incubate 30 min. at room temperature while shaking.
18. Wash as described in step 4.
19. Add 100 μL of ABTS/H2O2 solution to each well.
20. Incubate 5 to 15 minutes while shaking. Remove any bubbles.
21. If necessary stop reaction with the addition of 10 μL of 0.2 M HCl/well.
22. Read assay on Dynatech MR7000 ELISA Plate Reader.
(§1) The IC50 values were measured for several of the compounds of the invention.

FLK-1 receptor = molecular target: T2, FLK-1 receptor (Mus musculus, UniProt P35918); assay: ELISA assay measuring the kinase activity of the FLK-1 receptor in cells engineered to express FLK-1; format: cell-based; conditions: FLK-1 expressing NIH3T3 C7#3 cells, VEGF stimulated; for inhibition at 100 µM: compound at 100 μM; for IC50: cells without % or + sign
T2 construct: expressed in transfected cells; host or cells: NIH3T3 C7#3 cells
Method: An ELISA assay was conducted to measure the kinase activity of the FLK-1 receptor and more specifically, the inhibition or activation of TK activity on the FLK-1 receptor. Specifically, the following assay was conducted to measure kinase activity of the FLK-1 receptor in cells genetically engineered to express FLK-1.
(11) NIH3T3 C7#3 Cells (FLK-1 expressing cells);
The following protocol was used for conducting the assay:
1. Coat Corning 96-well elisa plates with 1.0 μg per well Cappel Anti-rabbit IgG antibody in 0.1 M Na2CO3 pH 9.6. Bring final volume to 150 μL per well. Coat plates overnight at 4° C. Plates can be kept up to two weeks when stored at 4° C.
2. Grow cells in Growth media (DMEM, supplemental with 2.0 mM L-Glutamine, 10% FBS) in suitable culture dishes until confluent at 37° C., 5% CO2.
3. Harvest cells by trypsinization and seed in Corning 25850 polystyrene 96-well roundbottom cell plates, 25.000 cells/well in 200 μL of growth media.
4. Grow cells at least one day at 37° C., 5% CO2.
5. Wash cells with D-PBS 1×.
6. Add 200 μL/well of starvation media (DMEM, 2.0 mM 1-Glutamine, 0.1% FBS). Incubate overnight at 37° C., 5% CO2.
7. Dilute Compounds 1:20 in polypropylene 96 well plates using starvation media. Dilute dimethylsulfoxide 1:20 for use in control wells.
8. Remove starvation media from 96 well cell culture plates and add 162 μL of fresh starvation media to each well.
9. Add 18 μL of 1:20 diluted Compound dilution (from step 7) to each well plus the 1:20 dimethylsulfoxide dilution to the control wells (+/−VEGF), for a final dilution of 1:200 after cell stimulation. Final dimethylsulfoxide is 0.5%. Incubate the plate at 37° C., 5% CO2 for two hours.
10. Remove unbound antibody from ELISA plates by inverting plate to remove liquid. Wash 3 times with TBSW+0.5% ethanolamine, pH 7.0. Pat the plate on a paper towel to remove excess liquid and bubbles.
11. Block plates with TBSW+0.5% Ethanolamine, pH 7.0, 150 μL per well. Incubate plate thirty minutes while shaking on a microliter plate shaker.
12. Wash plate 3 times as described in step 10.
13. […] Bring final volume to 150 μL/well with TBSW+0.5% ethanolamine pH 7.0. Incubate plate for thirty minutes while shaking.
14. Add 180 μL starvation medium to the cells and stimulate cells with 20 μL/well 10.0 mM sodium ortho vanadate and 500 ng/mL VEGF (resulting in a final concentration of 1.0 mM sodium ortho vanadate and 50 ng/mL VEGF per well) for eight minutes at 37° C., 5% CO2. Negative control wells receive only starvation medium.
15. After eight minutes, media should be removed from the cells and washed one time with 200 μL/well PBS.
16. Lyse cells in 150 μL/well HNTG while shaking at room temperature for five minutes. HNTG formulation includes sodium ortho vanadate, sodium pyro phosphate and EDTA.
17. Wash ELISA plate three times as described in step 10.
18. Transfer cell lysates from the cell plate to ELISA plate and incubate while shaking for two hours. To transfer cell lysate pipette up and down while scrapping the wells.
19. Wash plate three times as described in step 10.
20. Incubate ELISA plate with 0.02 μg/well UB40 in TBSW+05% ethanolamine. Bring final volume to 150 μL/well. Incubate while shaking for 30 minutes.
21. Wash plate three times as described in step 10.
22. Incubate ELISA plate with 1:10,000 diluted EIA grade goat anti-mouse IgG conjugated horseradish peroxidase in TBSW+0.5% ethanolamine, pH 7.0. Bring final volume to 150 μL/well. Incubate while shaking for thirty minutes.
23. Wash plate as described in step 10.
24. Add 100 μL of ABTS/H2O2 solution to well. Incubate ten minutes while shaking.
25. Add 100 μL of 0.2 M HCl for 0.1 M HCl final to stop the color development reaction. Shake 1 minute at room temperature. Remove bubbles with slow stream of air and read the ELISA plate in an ELISA plate reader at 410 nm.
as §1

T1 sequence (P00533 25-1210): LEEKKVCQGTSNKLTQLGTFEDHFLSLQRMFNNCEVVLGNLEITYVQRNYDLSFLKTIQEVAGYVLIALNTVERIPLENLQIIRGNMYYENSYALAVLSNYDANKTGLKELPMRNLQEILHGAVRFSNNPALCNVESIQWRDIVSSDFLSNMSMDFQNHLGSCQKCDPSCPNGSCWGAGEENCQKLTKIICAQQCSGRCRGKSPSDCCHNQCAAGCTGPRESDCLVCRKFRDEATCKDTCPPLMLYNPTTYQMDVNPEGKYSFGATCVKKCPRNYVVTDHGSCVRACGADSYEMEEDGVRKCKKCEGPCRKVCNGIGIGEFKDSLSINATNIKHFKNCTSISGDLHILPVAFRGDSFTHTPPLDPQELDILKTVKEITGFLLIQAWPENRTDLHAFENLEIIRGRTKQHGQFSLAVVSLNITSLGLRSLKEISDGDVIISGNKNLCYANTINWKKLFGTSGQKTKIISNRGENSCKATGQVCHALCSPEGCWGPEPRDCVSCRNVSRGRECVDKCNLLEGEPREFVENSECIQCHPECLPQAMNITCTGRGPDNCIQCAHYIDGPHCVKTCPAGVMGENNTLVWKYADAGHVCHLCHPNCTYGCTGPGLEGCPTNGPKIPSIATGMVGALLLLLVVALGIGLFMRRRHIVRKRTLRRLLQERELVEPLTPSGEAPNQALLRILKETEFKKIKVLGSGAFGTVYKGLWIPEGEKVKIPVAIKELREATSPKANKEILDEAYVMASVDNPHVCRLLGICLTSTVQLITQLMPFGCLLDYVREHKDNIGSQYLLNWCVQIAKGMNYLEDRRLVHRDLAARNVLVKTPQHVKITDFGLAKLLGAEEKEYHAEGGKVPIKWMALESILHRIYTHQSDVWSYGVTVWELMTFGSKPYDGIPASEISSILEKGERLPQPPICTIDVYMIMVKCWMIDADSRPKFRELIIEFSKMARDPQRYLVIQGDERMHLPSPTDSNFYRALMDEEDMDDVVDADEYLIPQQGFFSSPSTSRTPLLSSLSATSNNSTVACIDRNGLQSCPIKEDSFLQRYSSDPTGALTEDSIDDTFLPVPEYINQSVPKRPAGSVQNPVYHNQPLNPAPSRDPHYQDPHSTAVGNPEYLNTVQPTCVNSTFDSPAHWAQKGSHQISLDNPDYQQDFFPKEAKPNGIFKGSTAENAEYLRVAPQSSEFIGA
T2 sequence (P35918 20-1345): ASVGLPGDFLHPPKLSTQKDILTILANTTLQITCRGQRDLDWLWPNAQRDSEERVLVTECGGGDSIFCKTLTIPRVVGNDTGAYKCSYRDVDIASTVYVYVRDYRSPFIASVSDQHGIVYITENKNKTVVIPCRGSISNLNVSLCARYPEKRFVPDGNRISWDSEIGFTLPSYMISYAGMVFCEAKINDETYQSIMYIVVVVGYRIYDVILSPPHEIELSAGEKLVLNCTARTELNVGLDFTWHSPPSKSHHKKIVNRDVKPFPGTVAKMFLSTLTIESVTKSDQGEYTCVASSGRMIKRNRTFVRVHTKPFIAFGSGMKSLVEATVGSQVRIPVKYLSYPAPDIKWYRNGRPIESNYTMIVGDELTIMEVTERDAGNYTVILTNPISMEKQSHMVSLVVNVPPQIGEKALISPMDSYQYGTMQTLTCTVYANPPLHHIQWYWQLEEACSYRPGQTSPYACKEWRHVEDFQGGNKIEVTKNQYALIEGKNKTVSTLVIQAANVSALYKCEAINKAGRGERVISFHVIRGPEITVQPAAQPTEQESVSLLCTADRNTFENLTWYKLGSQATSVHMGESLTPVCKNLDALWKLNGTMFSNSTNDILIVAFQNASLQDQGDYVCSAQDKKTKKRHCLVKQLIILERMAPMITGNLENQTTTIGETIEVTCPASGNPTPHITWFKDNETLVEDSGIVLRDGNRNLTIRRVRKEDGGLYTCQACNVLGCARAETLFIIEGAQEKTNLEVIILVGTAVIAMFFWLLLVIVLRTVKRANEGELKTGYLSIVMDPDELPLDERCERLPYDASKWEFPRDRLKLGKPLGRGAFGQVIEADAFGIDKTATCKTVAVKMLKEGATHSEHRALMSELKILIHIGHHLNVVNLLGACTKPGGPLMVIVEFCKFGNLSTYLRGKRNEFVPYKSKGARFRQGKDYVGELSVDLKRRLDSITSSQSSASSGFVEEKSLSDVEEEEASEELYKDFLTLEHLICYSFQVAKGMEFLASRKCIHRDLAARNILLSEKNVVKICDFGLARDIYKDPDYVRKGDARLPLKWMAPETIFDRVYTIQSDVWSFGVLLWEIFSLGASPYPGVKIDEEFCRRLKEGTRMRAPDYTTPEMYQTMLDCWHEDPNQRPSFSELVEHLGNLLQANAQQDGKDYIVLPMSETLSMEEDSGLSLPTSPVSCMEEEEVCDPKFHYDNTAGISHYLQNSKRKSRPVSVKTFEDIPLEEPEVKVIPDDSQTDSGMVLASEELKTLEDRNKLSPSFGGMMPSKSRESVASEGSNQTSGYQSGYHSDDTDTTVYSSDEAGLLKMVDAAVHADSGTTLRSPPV

| Structure (SMILES) | IC50 (EGFR protein) | inhibition at 100 µM (FLK-1 receptor) | IC50 (FLK-1 receptor) |
| --- | --- | --- | --- |
| Cc1c(/C=C2\C(=O)Nc3ccc(Cl)cc32)[nH]c2ccccc12 [IN-017, 5-Chloro-3-(3-methyl-1H-indol-2-ylmethylene)-1,3-dihydro-indol-2-one] | > 100 µM | 20.4% |  |
| Cc1c(/C=C2\C(=O)Nc3ccccc32)[nH]c2ccccc12 [IN-016, 3-(3-Methyl-1H-indol-2-ylmethylene)-1,3-dihydro-indol-2-one] | > 100 µM | 26% |  |
| Cc1ccc2c(c1)/C(=C/c1[nH]c3ccccc3c1C)C(=O)N2 [IN-001, 5-Methyl-3-(3-methyl-1H-indol-2-ylmethylene)-1,3-dihydro-indol-2-one] | > 100 µM | 10.7% |  |
| NS(=O)(=O)c1ccc2c(c1)/C(=C/c1cc3ccccc3[nH]1)C(=O)N2 [IN-008, 3-(1H-Indol-2-ylmethylene)-2-oxo-2,3-dihydro-1H-indole-5-sulfonic acid amide] | > 100 µM | 23% |  |
| CC(=O)c1ccc2c(c1)C(=Cc1cc3ccccc3[nH]1)C(=O)N2 [IN-007, 5-Acetyl-3-(1H-indol-2-ylmethylene)-1,3-dihydro-indol-2-one] | > 100 µM | 30% |  |
| CC(=O)c1ccc2c(c1)C(=Cc1[nH]c3ccccc3c1C)C(=O)N2 [IN-006, 5-Acetyl-3-(3-methyl-1H-indol-2-ylmethylene)-1,3-dihydro-indol-2-one] | > 100 µM and 30.8 µM | 10.4% |  |
| Cc1c(/C=C2\C(=O)Nc3ccc(Br)cc32)[nH]c2ccccc12 [IN-018, 5-Bromo-3-(3-methyl-1H-indol-2-ylmethylene)-1,3-dihydro-indol-2-one] | 17.8 µM and > 100 µM | 15.8% |  |
| Cc1c(/C=C2\C(=O)Nc3ccc(S(N)(=O)=O)cc32)[nH]c2ccccc12 [IN-002, 3-(3-Methyl-1H-indol-2-ylmethylene)-2-oxo-2,3-dihydro-1H-indole-5-sulfonic acid amide] | > 100 µM | 8.7% |  |
| O=C1Nc2ccc(Cl)cc2/C1=C/c1cc2ccccc2[nH]1 [IN-013, 5-chloro-3-(1H-indol-2-ylmethylene)-1,3-dihydro-indol-2-one] | > 100 µM | 17% |  |
| Cc1c(/C=C2\C(=O)Nc3ccc(C(=O)O)cc32)[nH]c2ccccc12 [IN-005, 3-(3-Methyl-1H-indol-2-ylmethylene)-2-oxo-2,3-dihydro-1H-indole-5-carboxylic acid] | 8.2 µM |  | 4.2 µM |
| Nc1ccc2c(c1)/C(=C/c1cc3ccccc3[nH]1)C(=O)N2 [IN-009, 5-Amino-3-(1H-indol-2-ylmethylene)-1,3-dihydro-indol-2-one] | > 100 µM |  | 1.53 µM |
| O=C1Nc2cc(Cl)ccc2/C1=C/c1cc2ccccc2[nH]1 [IN-011, 6-Chloro-3-(1H-indol-2-ylmethylene)-1,3-dihydro-indol-2-one] | > 100 µM | 6.1% |  |
| Cc1cccc2c1/C(=C/c1[nH]c3ccccc3c1C)C(=O)N2 [IN-019, 4-Methyl-3-(3-methyl-1H-indol-2-ylmethylene)-1,3-dihydro-indol-2-one] | > 100 µM | 10.7% |  |
| O=C1Nc2ccccc2/C1=C/c1cc2ccccc2[nH]1 [IN-012, 3-(1H-Indol-2-ylmethylene)-1,3-dihydro-indol-2-one] | > 100 µM | 17.6% |  |
| O=C1Nc2ccc(C(=O)O)cc2/C1=C/c1cc2ccccc2[nH]1 [IN-010, 3-(1H-Indol-2-ylmethylene)-2-oxo-2,3-dihydro-1H-indole-5-carboxylic acid] | > 100 µM |  | 2.1 µM |
